Reference: ChEMBL document CHEMBL1143447, “Identification of synthetic compounds active against VRE: the role of the lipidated aminoglucose and the structure of glycopeptide binding pocket” (2005)
In brackets after ≈: the same amount, converted by molar mass.

Legend:
Format in all cases: functional
[1] = tested on: Staphylococcus epidermidis; assay: Minimum inhibitory concentration against 147 Staphylococcus epidermidis ATCC 12228
Enterococcus faecium [2] = assay: Minimum inhibitory concentration against 568 Enterococcus faecium (isogenic of L569)
Enterococcus faecium [3] = assay: Minimum inhibitory concentration against 569 Enterococcus faecium clin. isolate Van-A
Enterococcus faecium [4] = assay: Minimum inhibitory concentration against 2215 Enterococcus faecium clin. isolate Van-A
Enterococcus faecalis [5] = assay: Minimum inhibitory concentration against 559 Enterococcus faecalis (isogenic of L 560)
Enterococcus faecalis [6] = assay: Minimum inhibitory concentration against 2981 Enterococcus faecalis clin. Isolate Van-A
Enterococcus faecalis [7] = assay: Minimum inhibitory concentration against 1139 Enterococcus faecalis teico-vanco-sensitive
Streptococcus pyogenes = assay: Minimum inhibitory concentration against 49 Streptococcus pyogenes C203
Enterococcus faecalis [8] = assay: Minimum inhibitory concentration against 559 Enterococcus faecalis Van-A
Staphylococcus aureus [9] = assay: Minimum inhibitory concentration against 3797 Staphylococcus aureus Clin. isolate VISA
Staphylococcus aureus [10] = assay: Minimum inhibitory concentration against 3798 Staphylococcus aureus Clin. isolate VISA
Staphylococcus aureus [11] = assay: Minimum inhibitory concentration against 613 Staphylococcus aureus Clin. isolate Met-R
Staphylococcus aureus [12] = assay: Minimum inhibitory concentration against 819 Staphylococcus aureus Smith MSSA
Staphylococcus aureus [13] = assay: Minimum inhibitory concentration against 1400 Staphylococcus aureus Clin. isolate Met-R

| Structure (SMILES) | MIC [1] [µg/mL] | MIC (Enterococcus faecium [2]) [µg/mL] | MIC (Enterococcus faecium [3]) [µg/mL] | MIC (Enterococcus faecium [4]) [µg/mL] | MIC (Enterococcus faecalis [5]) [µg/mL] | MIC (Enterococcus faecalis [6]) [µg/mL] | MIC (Enterococcus faecalis [7]) [µg/mL] | MIC (Streptococcus pyogenes) [µg/mL] | MIC (Enterococcus faecalis [8]) [µg/mL] | MIC (Staphylococcus aureus [9]) [µg/mL] | MIC (Staphylococcus aureus [10]) [µg/mL] | MIC (Staphylococcus aureus [11]) [µg/mL] | MIC (Staphylococcus aureus [12]) [µg/mL] | MIC (Staphylococcus aureus [13]) [µg/mL] |
| --- | --- | --- | --- | --- | --- | --- | --- | --- | --- | --- | --- | --- | --- | --- |
| CCCCCCCCCCCC(=O)NC1C(Oc2cc3cc(c2OC)Oc2ccc(cc2[N+](=O)[O-])C[C@@H](NC(=O)[C@H](N)CC(C)C)C(=O)N[C@@H](Cc2ccccc2)C(=O)N[C@H]3[C@@H](O)C(=O)O)OC(CO)C(O)C1O.Cl (stereo partly specified) | 64 | 64 | 32 | 32 | 8 | 32 | 32 | 32 | 8 | – | – | – | – | – |
| CC(C)C[C@@H](N)C(=O)N[C@@H]1Cc2ccc(c([N+](=O)[O-])c2)Oc2cc(cc(Oc3ccc([N+](=O)[O-])cc3)c2O)[C@H]([C@@H](O)C(=O)O)NC(=O)[C@H](Cc2ccccc2)NC1=O.Cl | – | – | – | – | 64 | – | – | 64 | 64 | 64 | – | – | – | – |
| CCCCCCCCCCCC(=O)NC1C(Oc2cc3cc(c2OC)Oc2ccc(cc2[N+](=O)[O-])C[C@@H](NC(=O)[C@H](N)CC(C)C)C(=O)N[C@@H](Cc2ccccc2)C(=O)N[C@H]3[C@@H](O)C(=O)NCCCC(=O)N[C@@H](C(=O)NCCCN(C)C)c2ccccc2)OC(CO)C(O)C1O.O=C(O)C(F)(F)F (stereo partly specified) | 16 | 16 | 8 | 32 | 16 | 32 | 32 | 8 | 8 | 32 | 16 | 32 | – | – |
| CN[C@H](CC(C)C)C(=O)N[C@H]1C(=O)N[C@@H](CC(N)=O)C(=O)N[C@H]2C(=O)N[C@H]3C(=O)N[C@H](C(=O)N[C@H](C(=O)O)c4cc(O)cc(O)c4-c4cc3ccc4O)[C@H](O)c3ccc(c(Cl)c3)Oc3cc2cc(c3O[C@@H]2O[C@H](CO)[C@@H](O)[C@H](O)[C@H]2O[C@H]2C[C@](C)(N)[C@H](O)[C@H](C)O2)Oc2ccc(cc2Cl)[C@H]1O [VANCOMYCIN] | 1 (≈ 0.69 µM) | 2 (≈ 1.38 µM) | – | – | 1 (≈ 0.69 µM) | – | 2 (≈ 1.38 µM) | ≤ 0.125 | – | 8 (≈ 5.52 µM) | 8 (≈ 5.52 µM) | 1 (≈ 0.69 µM) | 1 (≈ 0.69 µM) | 1 (≈ 0.69 µM) |
| COc1c(Oc2ccc([N+](=O)[O-])cc2)cc2cc1Oc1ccc(cc1[N+](=O)[O-])C[C@@H](NC(=O)[C@H](N)CC(C)C)C(=O)N[C@@H](Cc1ccccc1)C(=O)N[C@H]2[C@@H](O)C(=O)O.Cl | – | – | – | – | 16 | – | 64 | 16 | 16 | 16 | – | – | – | – |
| CC(=O)N[C@@H]1[C@H](Oc2c3cc4cc2Oc2ccc(cc2Cl)[C@@H](O[C@@H]2O[C@@H](CO)[C@@H](O)[C@H](O)[C@@H]2NC(C)=O)[C@@H]2NC(=O)[C@H](NC(=O)[C@@H]4NC(=O)[C@H]4NC(=O)[C@@H](Cc5ccc(c(Cl)c5)O3)NC(=O)[C@H](N)c3ccc(O)c(c3)Oc3cc(O)cc4c3)c3ccc(O)c(c3)-c3c(O[C@H]4O[C@H](CO)[C@@H](O)[C@@H](O)[C@@H]4O)cc(O)cc3[C@@H](C(=O)O)NC2=O)O[C@@H](CO)[C@@H](O)[C@@H]1O | 2 (≈ 1.13 µM) | ≤ 0.125 | – | – | – | – | – | ≤ 0.125 | – | 16 (≈ 9.05 µM) | 4 (≈ 2.26 µM) | 1 (≈ 0.566 µM) | 1 (≈ 0.566 µM) | 1 (≈ 0.566 µM) |
| CCCCCCCCCCCC(=O)NC1C(Oc2c(Oc3ccc([N+](=O)[O-])cc3)cc3cc2Oc2ccc(cc2[N+](=O)[O-])C[C@@H](NC(=O)[C@H](N)CC(C)C)C(=O)N[C@@H](Cc2ccccc2)C(=O)N[C@H]3[C@H](O)C(=O)O)OC(CO)C(O)C1O.O=C(O)C(F)(F)F (stereo partly specified) | – | 64 | 32 | – | 8 | – | 32 | 32 | 8 | 32 | – | – | – | – |
| CCCCCCCCCCCC(=O)NC1C(Oc2cc3cc(c2OC)Oc2ccc(cc2[N+](=O)[O-])C[C@@H](NC(=O)[C@H](N)CC(C)C)C(=O)N[C@@H](Cc2ccccc2)C(=O)N[C@H]3[C@H](O)C(=O)O)OC(CO)C(O)C1O.Cl (stereo partly specified) | – | – | – | – | – | – | – | 32 | – | – | – | – | – | – |
